Test results: publication PMC5762728 (Scientific Reports, 2018)

Legend:
[1] = biological target: T1, C-domain of bovine ACE (C-ACE) (Bos taurus, UniProt P12820); assay: Inhibition of C-ACE hydrolysis of Aβ peptides by lisinopril; type: biochemical; conditions: lisinopril 10 μM; MALDI-TOF MS
T1 sequence (P12820 643-1222 limits assumed): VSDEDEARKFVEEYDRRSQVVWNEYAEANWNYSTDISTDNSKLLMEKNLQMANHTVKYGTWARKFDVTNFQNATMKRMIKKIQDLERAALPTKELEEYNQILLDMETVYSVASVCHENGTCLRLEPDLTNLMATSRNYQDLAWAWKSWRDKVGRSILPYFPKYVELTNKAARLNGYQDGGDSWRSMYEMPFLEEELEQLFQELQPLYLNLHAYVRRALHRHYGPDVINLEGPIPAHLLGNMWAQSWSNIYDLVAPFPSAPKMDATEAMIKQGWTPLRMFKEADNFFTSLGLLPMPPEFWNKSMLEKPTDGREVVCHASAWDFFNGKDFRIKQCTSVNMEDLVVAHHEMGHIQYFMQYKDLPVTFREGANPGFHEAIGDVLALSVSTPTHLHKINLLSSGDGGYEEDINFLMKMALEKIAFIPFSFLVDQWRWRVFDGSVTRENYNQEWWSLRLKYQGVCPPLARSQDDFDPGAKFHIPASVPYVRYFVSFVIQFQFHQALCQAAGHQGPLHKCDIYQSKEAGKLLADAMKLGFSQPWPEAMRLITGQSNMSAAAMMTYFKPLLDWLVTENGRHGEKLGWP

N-domain of ACE [2] = conditions: cited from earlier work
C-domain of ACE (C-ACE) = assay: C-ACE with lisinopril, ratAβ substrate; conditions: bovine, 37 °C, up to 60 min
N-domain of ACE (N-ACE) [3] = assay: N-ACE with lisinopril, ratAβ substrate; conditions: bovine, 37 °C, up to 60 min
[4] = system: N-ACE (N-domain of bovine ACE); conditions: 37 °C, up to 60 min
[5] = biological target: T2, N-domain of bovine ACE (N-ACE) (Bos taurus, UniProt P12820); assay: Hydrolysis of Aβ metal-binding-domain peptides by N-ACE, products identified/quantified by MALDI-TOF MS
T2 sequence (P12820 40-624 limits assumed): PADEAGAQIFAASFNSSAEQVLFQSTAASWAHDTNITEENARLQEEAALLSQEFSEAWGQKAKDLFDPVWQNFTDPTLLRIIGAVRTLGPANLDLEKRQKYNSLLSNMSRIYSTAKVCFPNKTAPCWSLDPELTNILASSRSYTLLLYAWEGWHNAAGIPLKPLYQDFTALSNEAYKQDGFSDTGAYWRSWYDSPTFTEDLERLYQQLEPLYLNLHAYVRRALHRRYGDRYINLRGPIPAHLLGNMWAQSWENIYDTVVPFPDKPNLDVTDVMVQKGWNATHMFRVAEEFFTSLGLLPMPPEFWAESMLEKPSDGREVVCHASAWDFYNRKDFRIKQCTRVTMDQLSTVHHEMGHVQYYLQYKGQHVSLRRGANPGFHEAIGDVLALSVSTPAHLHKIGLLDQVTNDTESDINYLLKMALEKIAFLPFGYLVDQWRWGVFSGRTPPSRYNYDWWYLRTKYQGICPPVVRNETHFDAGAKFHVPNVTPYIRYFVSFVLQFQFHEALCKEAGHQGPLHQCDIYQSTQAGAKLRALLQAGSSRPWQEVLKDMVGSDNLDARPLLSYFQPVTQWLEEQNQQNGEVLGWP

[6] = biological target: T1, C-domain of bovine ACE (C-ACE); assay: Hydrolysis of Aβ metal-binding-domain peptides by C-ACE, products identified/quantified by MALDI-TOF MS; conditions: same experimental conditions as N-ACE, 37 °C
N-domain of ACE [7] = conditions: cited from earlier work; remark: listed apart in the source
N-domain of ACE (N-ACE) [8] = assay: N-ACE with lisinopril; conditions: bovine, 37 °C

NCCCC[C@H](N[C@@H](CCc1ccccc1)C(=O)O)C(=O)N1CCC[C@H]1C(=O)O [lisinopril]
Effect of lisinopril on C-ACE hydrolysis of Aβ(1-16) [1]: fully prevented the formation of these products of hydrolysis

Pyr-HWSYGLRPG-[Amide]
fragment found (N-domain of ACE [2]): N-terminal tripeptide

Ac-DAEFGHDSGFEVRHQK-NH2
not cleaved (C-domain of ACE (C-ACE)): complete inhibition of hydrolysis | not cleaved (N-domain of ACE (N-ACE) [3]): complete inhibition of hydrolysis | cleaved bond [4]: Arg13-His14, 10 min | not cleaved [4]: absence of endopeptidase activity toward the G5-H6 peptide bond

Ac-DAEFGHDSGFEVRHQK-NH2 [[CH3CO]-Asp-Ala-Glu-Phe-Gly^5-His-Asp- Ser-Gly- Phe^10-Glu-Val-Arg-His-Gln^15-Lys-[NH2]]
Peptide bond hydrolysed by N-ACE ([5]; bicarbonate buffer pH 7.8, 37 °C, incubation 40 min (Aβ(1-16)), 130 min (amidated Aβ peptides), 60 min (ratAβ peptide)): Arg13-His14 | Bond cleaved, N-ACE (backbone positions) ([5]; same digestion as products observed, N-ACE, 37 °C): 13–14 | Peptide bond(s) hydrolysed by C-ACE [6]: Arg13-His14, His14-Gln15, and Gln15- Lys16

Pyr-HWSYGLRPG-[Amide] [luliberin, regulatory peptide, natural substrate of ACE]
Endoproteolytic cleavage by the N-domain of ACE (N-domain of ACE [7]): cleaves an N-terminal tripeptide

[CH3CO]-Asp-Ala-Glu-Phe-Arg^5-His-Asp- Ser-Gly-Tyr^10-Glu-Val-His-His-Gln^15-Lys-[NH2]
not cleaved (N-domain of ACE (N-ACE) [8]): complete inhibition of hydrolysis
